Laboratory results reported in US9592272B2, “Treatment of osteoarthritis with incretin hormones or analogues thereof” (UNIVERSITE PIERRE ET MARIE CURIE (PARIS 6), priority 2012, dated 2017).

Tests used:
[1] = system: MMP-3, MMP-9 and MMP-13 expression in chondrocytes; experiment: Expression of MMP-3, MMP-9 and MMP-13 in primary chondrocytes in response to IL-1β (real-time quantitative RT-PCR); type: cell-based, murine; conditions: peptide 10 nM; IL-1β 0.1 or 1 ng/ml, 24 h; FIG. 1
Procedure: (§1) The murine chondrocytes were obtained after enzymatic digestion of femoral heads and knees of 4- to 6-day-old mice. The cells were amplified in a monolayer for 1 week (Gosset et al., 2008).
(§2) The cultures were deprived in a serum-free culture medium for 24 h before treatment.
(§3) The RNAs were extracted using the RNeasy Mini kit (Qiagen) and then reverse-transcribed using the Omniscript kit (Qiagen). The expression level of the genes of interest was quantified by real-time PCR (Light Cycler LC480), relative to the HPRT reference gene, using the following primers: […]

[2] = system: MMP-3, MMP-9 and MMP-13 expression in osteoblasts; experiment: Expression of MMP-3, MMP-9 and MMP-13 in primary osteoblasts in response to IL-1β (real-time quantitative RT-PCR); type: cell-based, murine; conditions: peptide 10 nM, IL-1β 0.1 or 1 ng/ml, 24 h; for overexpression of the prodegradative enzymes MMP-3 and MMP-13 in the osteoblasts in response to an IL-1β treatment: FIGS. 2A, B and C
Procedure: The murine osteoblasts were obtained after enzymatic digestion of the skulls of 4- to 6-day-old mice. The cells were amplified for 3 weeks, in the presence of ascorbic acid and β-glycerophosphate. The osteoblasts at the end of culture formed a three-dimensional membrane (Sanchez et al., 2009).
as §2, §3

[3] = in vivo, iv; cited from earlier work
[4] = system: prostaglandin E2 (PGE2) release by chondrocytes; experiment: Prostaglandin E2 release by chondrocytes in response to IL-1β (EIA on culture supernatants); type: cell-based, murine
Procedure: as §1, §2
The amount of PGE2 produced by the cells was measured by means of the prostaglandin E2 monoclonal EIA kit (Cayman) using the culture supernatants.

[5] = clinical trials (Krzeski et al., 2007); cited from earlier work

Molecule	overexpression of the prodegradative enzymes MMP-3, MMP-9 and/or MMP-13 in the chondrocytes in response to an IL-1β treatment [1]	overexpression of the prodegradative enzymes MMP-3 and MMP-13 in the osteoblasts in response to an IL-1β treatment [2]	half-life time [3]	overexpression of MMP-9 in the osteoblasts in response to an IL-1β treatment ([2]; FIG. 2D)	release of prostaglandin E2 (PGE2) by the chondrocytes in response to an IL-1β treatment ([4]; peptide 10 nM, IL-1β 1 ng/ml, 24 h, FIG. 3)	induction of PGE2 by peptide alone, chondrocytes ([4]; peptide alone, without IL-1β)	toxicity revealed during clinical trials [5]
GIP (1-42)	inhibits	inhibits	approximately 2 minutes	–	–	–	–
GLP-1 (7-37)	inhibits	inhibits	–	–	–	–	–
GLP-1 (7-36) amide	inhibits	inhibits	–	inhibits	inhibits	does not induce	–
COc1ccc(C(=O)Nc2ccc(S(=O)(=O)NC(CC#CCN3CCOCC3)C(=O)O)cc2)cc1 (centres unmarked) [PG-116800]	–	–	–	–	–	–	musculoskeletal toxicity
